# In PMC8241654 (Cell, 2021):
# System: HLA class I
# Assay type: cell-based, Human
sequence,measurement,value
MIAQYTSAL [B7 COVID 16],HLA class I stabilization across alleles (in words),can stabilize a number of HLA class I alleles
